Source: publication PMC10766984, “Josephin domain containing 2 (JOSD2) promotes lung cancer by inhibiting LKB1 (Liver kinase B1) activity” (Signal Transduction and Targeted Therapy, 2024)
Where “and” joins values, the source holds several entries; their conditions need not be identical. Equal entries are not always repeated.

Columns and labels:
[1] = test system: NCI-H1299 xenografted tumors; test: Antitumor activity of HY041004 in vivo; set-up: species or system BALB/c-Nude mice; conditions: for Tumor Weight: at the endpoint; for T/C: RTVtreated / RTVcontrol
Experimental: (§1) The indicated cell lines were treated with indicated compounds at a series of concentrations for 72 h, followed by cell proliferation assay and colony formation assay. Black dashed line indicates 50% of cell survival.
Female BALB/c-Nude mice (4-5 weeks) were subcutaneously transplanted with 1 mm^3 NCI-H1299 xenograft tumor mass. […] The tumor volume was measured by a caliper every 2 days as soon as the tumor reached a palpable size. Relative tumor volume (RTV) was calculated by (RTV=TVt / TV0, where TV0 is the tumor volume measured when starting treatment). The T/C value was calculated as RTVtreated / RTVcontrol.

Ataxin-3 = Ataxin-3 (Homo sapiens, UniProt P54252); test: In vitro ubiquitin-AMC assay with GST-Ataxin-3; type: biochemical; conditions: incubated with GST-Ataxin-3 at 37 °C for 30 min
Source text: (§2) (means ± SD, n=3). […] (means ± SD, n=3). […] (means ± SD, n=3). […] (means ± SD, n=3).

NCI-H838 cells = test: Proliferation assay in LKB1-null cells, 72 h; type: cell-based; conditions: Homo sapiens
Experimental: (§3) For cell proliferation assay, cells infected with lentiviruses packaged indicated plasmids were seeded indicated number cells per well in 96-well plates. Cell number (absorbance) was then estimated by the sulforhodamine B (SRB) (Sigma-Aldrich, #230162) assay and the absorbance of the individual wells was determined at the optical density of 515 nm. For colony formation assay, cells infected with lentiviruses packaged indicated plasmids were seeded indicated number cells per well in 6-well plates. Two weeks later, cells were stained with SRB and the numbers of colonies having more than 50 cells were counted.
(§4) (a) Proliferation assay in LKB1-null cells (means ± SD, n=3). […] Red dashed line indicates 50% of cell survival. (b) Proliferation assay in A549 harboring LKB1-null/WT/3KR (Top) and immunoblotting analysis showing the overexpression efficiency of LKB1-WT/3KR (Bottom). […] (means ± SD, n=3). (c) Representative images of in situ TUNEL assay of cancer cells inside tumor mass with or without JOSD2 inhibitor treatment. (means ± SD, n=3). n.s: P > 0.05; *P < 0.05; **P < 0.01.

A549 cells = test: Proliferation assay in LKB1-null cells, 72 h; type: cell-based; conditions: Homo sapiens
Experimental: as §3, §4

NCI-H23 cells = test: Proliferation assay in LKB1-null cells, 72 h; type: cell-based; conditions: Homo sapiens
Experimental: as §3, §4

NCI-H460 cells = test: Proliferation assay in LKB1-null cells, 72 h; type: cell-based; conditions: Homo sapiens
Experimental: as §3, §4

NCI-H1395 cells = test: Proliferation assay in LKB1-null cells, 72 h; type: cell-based; conditions: Homo sapiens
Experimental: as §3, §4

LKB1-WT NSCLC cell lines = test: Proliferation assay, panel of LKB1-WT cell lines; type: cell-based; conditions: average of four LKB1-WT cell lines, 72 h
Experimental: as §1, §3

[2] = test system: A549 harboring LKB1-null/WT/3KR; test: Proliferation assay in cells harboring LKB1-null/WT/3KR; type: cell-based; conditions: series of concentrations, 72 h
Source text: as §4

[3] = test system: LKB1-null NSCLC cell lines; test: Proliferation assay, panel of five LKB1-null cell lines; type: cell-based; conditions: 72 h
Experimental: as §3, §4

NCI-H1299 cells [4] = test: Proliferation assay (SRB), 72 h; type: cell-based; conditions: Homo sapiens, LKB1-WT
Experimental: as §1, §3

NCI-H292 cells = test: Proliferation assay (SRB), 72 h; type: cell-based; conditions: Homo sapiens, LKB1-WT
Experimental: as §1, §3

NCI-H358 cells = test: Proliferation assay (SRB), 72 h; type: cell-based; conditions: Homo sapiens, LKB1-WT
Experimental: as §1, §3

PC-9 cells = test: Proliferation assay (SRB), 72 h; type: cell-based; conditions: Homo sapiens, LKB1-WT
Experimental: as §1, §3

JOSD1 = JOSD1 (Homo sapiens, UniProt Q15040); test: In vitro ubiquitin-AMC assay with GST-JOSD1; type: biochemical; conditions: incubated with GST-JOSD1 at 37 °C for 30 min
Source text: as §2

[5] = test system: NCI-H1299 xenografted tumors; test: TUNEL assay in xenografted tumors; type: in vivo, BALB/c-Nude mice; conditions: oral administration, in situ TUNEL
Source text: Apoptosis in xenografted tumors was detected by a TUNEL assay kit (Beyotime Biotechnology, Shanghai, China), according to the manufacturer's protocols. Images were captured by a fluorescence microscope.
as §4

Ataxin-3L = target: T1, Ataxin-3L (Homo sapiens, UniProt Q9H3M9); test: In vitro ubiquitin-AMC assay with GST-Ataxin-3L; type: biochemical; conditions: incubated with GST-Ataxin-3L at 37 °C for 30 min
T1 sequence (Q9H3M9 1-355): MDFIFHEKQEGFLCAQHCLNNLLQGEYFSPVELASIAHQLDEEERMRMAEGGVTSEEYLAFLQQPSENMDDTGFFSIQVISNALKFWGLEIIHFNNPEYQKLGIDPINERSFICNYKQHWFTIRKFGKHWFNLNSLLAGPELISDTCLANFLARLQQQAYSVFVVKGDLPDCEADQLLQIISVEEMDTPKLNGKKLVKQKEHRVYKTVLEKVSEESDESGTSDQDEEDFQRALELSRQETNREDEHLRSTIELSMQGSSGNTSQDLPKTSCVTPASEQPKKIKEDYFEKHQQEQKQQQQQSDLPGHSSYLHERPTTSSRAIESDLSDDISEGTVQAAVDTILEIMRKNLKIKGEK
Source text: as §2

NCI-H1299 cells [6] = test: Apoptosis, IB of cell lysates after 72 h; type: cell-based; conditions: series of concentrations
Source text: as §2

Sequence of Ataxin-3 (P54252 whole entry): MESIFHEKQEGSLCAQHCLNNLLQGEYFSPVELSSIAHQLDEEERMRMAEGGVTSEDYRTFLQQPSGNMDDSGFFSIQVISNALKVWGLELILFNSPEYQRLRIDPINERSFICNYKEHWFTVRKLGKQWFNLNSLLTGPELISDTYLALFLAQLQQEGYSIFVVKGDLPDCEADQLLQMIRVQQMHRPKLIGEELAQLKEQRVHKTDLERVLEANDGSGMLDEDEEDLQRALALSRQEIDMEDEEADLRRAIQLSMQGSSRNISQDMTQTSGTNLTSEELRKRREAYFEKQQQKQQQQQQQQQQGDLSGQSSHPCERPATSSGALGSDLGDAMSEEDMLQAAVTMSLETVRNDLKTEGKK

## O=C1c2ccncc2C(=O)c2c1nnn2Cc1cc(F)cc(Cl)c1 [HY041004, 3-(3-chloro-5-fluorobenzyl)-3H-[1,2,3] triazolo[4,5-g]isoquinoline-4,9-dione]
other
  melting point: 172 to 174 °C
[1]; 50 mg/kg orally twice daily
  Tumor Weight: 1.181 g and 1.18 ± 0.49 g
  T/C: 64.71%
[1]; 100 mg/kg orally twice daily
  Tumor Weight: 0.901 g and 0.90 ± 0.23 g
  T/C: 43.88%
Ataxin-3
  IC50: 5400 nM
NCI-H838 cells
  IC50: 0.72 µM
A549 cells
  IC50: 0.46 µM
NCI-H23 cells
  IC50: 0.73 µM
NCI-H460 cells
  IC50: 0.24 µM
NCI-H1395 cells
  IC50: 0.46 µM
LKB1-WT NSCLC cell lines
  IC50: 0.122 µM
[2]
  Anti-proliferative effect upon exogenous introduction of LKB1-WT, but not 3KR: strengthen the anti-proliferative effect
[3]; average of five LKB1-null cell lines
  IC50: 0.52 µM
[3]; compared with LKB1 wild-type NSCLC cell lines
  Susceptibility of LKB1-null cell lines: less than that in LKB1 wild-type NSCLC cell lines
NCI-H1299 cells [4]
  IC50: 0.1 µM
NCI-H292 cells
  IC50: 0.14 µM
NCI-H358 cells
  IC50: 0.13 µM
PC-9 cells
  IC50: 0.12 µM
JOSD1
  IC50: 470 nM
[5]
  Intratumor cell apoptosis: induced intratumor cell apoptosis
Ataxin-3L
  IC50: 12800 nM
NCI-H1299 cells [6]
  Cell apoptosis: induced cell apoptosis in a concentration-dependent manner
